The assay concerns HeLa. Nature of the assay: Cytotoxicity against human HeLa cells incubated for 48 hrs by MTT assay. It counts as functional, cell-based.

`CCCCn1c2ccccc2c2c(=O)oc(-c3ccccc3)cc21` showed an IC50 of 1110 nM.

`CCCCc1cc2c(c(=O)o1)c1ccccc1n2C` returned a 50% inhibitory concentration (IC50) of 1920 nM.

`CCCCCc1cc2c(c(=O)o1)c1ccccc1n2Cc1ccccc1` gave an IC50 of 1630 nM.

Consider `O=c1oc(CCCO)cc2c1c1ccccc1n2Cc1ccccc1`, for which inhibition was half-maximal at 2250 nM (IC50). This IC50 and that of the compound before are within 1.5-fold of each other.

In turn, `CCCCc1cc2c(c(=O)o1)c1ccccc1n2Cc1ccccc1` showed an IC50 of 1750 nM.

`O=c1oc(-c2ccccc2)cc2[nH]c3ccccc3c12` gave an IC50 of 2550 nM. This IC50 and that of the compound before are within 1.5-fold of each other.

In turn, `CCCCc1cc2c(c(=O)o1)c1ccccc1n2CC` yielded an IC50 of 1890 nM. The IC50 values of the last two compounds are within 1.5-fold of each other.

As for `Cn1c2ccccc2c2c(=O)oc(-c3ccccc3)cc21`, the IC50 was determined as 1240 nM.

As to `CCn1c2ccccc2c2c(=O)oc(-c3ccccc3)cc21`, the midpoint of inhibition, the IC50, lay at 1410 nM.

Compound `CC(C)(O)c1cc2c(c(=O)o1)c1ccccc1n2Cc1ccccc1` registered an IC50 of 2020 nM.

The compound `O=c1oc(-c2ccccc2)cc2c1c1ccccc1n2Cc1ccccc1` showed an IC50 of 690 nM.

(Values after ChEMBL document CHEMBL3792378, “Design, synthesis and cytotoxicity of pyrano[4,3-b]indol-1(5H)-ones: A hybrid pharmacophore approach via gold catalyzed cyclization” (Bioorg Med Chem Lett, 2016).)
